Results: patent US20140073700A1, “[…] ACID DERIVATIVES AND METHODS OF USE THEREOF” (AbbVie Inc., priority 2012, published 2014)

System: IFNγ-Induced NO Production in RAW 264.7 cells
Test: Nitric Oxide Suppression Assay (suppression of IFNγ-induced NO production)
Format: cell-based
Conditions: RAW264.7; RAW 264.7 mouse macrophage cells, 20 ng/mL interferon gamma, Griess detection; single curve fit to mean data of n=2-3
Method: RAW 264.7, a mouse macrophage cell line, was obtained from American Type Culture Collection (Manassas Va.) and maintained in the log phase of growth in Dulbecco's Modified Eagle's Medium (DMEM), 10% heat inactivated fetal calf serum and 100 units/mL antibiotic-antimycotic (AA). Cells were cultured and maintained in a humidified incubator at 37° C. under 5% CO2 and 95% air. Cells were sub-cultured every 3 days by scraping and were not used beyond passage 20. All cell culture supplies were obtained from Life Technologies (Grand Island, N.Y.).
RAW 264.7 cells were plated 1 day in advance of experiment at a concentration of 80,000 cells/well onto CellBIND® 96 well plates (Corning, N.Y.) in a total volume of 100 μL. The next day, pre-treat cells with compounds (from 3 μM to 0.3 nM serially diluted in a 10 point curve) from a 10× stock by adding 10 μL per well in complete DMEM media containing 10% fetal calf serum. The plates were centrifuged for 3 minutes at 400×g at room temperature followed by 2 hour incubation at 37° C. The cells were then incubated overnight at 37° C. with 10 μL of the insult, interferon gamma (R&D Systems, Minneapolis, Minn.), from a 10× stock for a final concentration of 20 ng/mL. The plates were centrifuged for 3 minutes at 400×g at room temperature followed by 18 hour incubation at 37° C. The following day, transfer 50 μL cell culture supernatant from each well into a clear bottom 96 well plate and follow the instructions from Promega's Griess Detection Kit #G2930 (Madison, Wis.) which involves the addition of 50 μL of the provided sulfanilamide solution for a 5-10 minute incubation at room temperature. Next add 50 μL of the provided N-1-napthylethylenediamine dihydrochloride (NED) solution for a 5-10 minute incubation at room temperature and protected from light. If any air bubbles were introduced into the well, the plates need to be centrifuged for 5 minutes at 400×g at room temperature to avoid interference with absorbance readings. The plates were read for absorbance within 30 minutes with a filter between 520 nm and 550 nm.
For the ability of compounds to suppress the increase in nitric oxide release, the percent maximal intensity of nitric oxide detected in each well was normalized to that induced by the peak value for 20 ng/mL of interferon gamma alone and plotted against the compound concentration to calculate IC50 values and to control for plate-to-plate variability. Concentration-response data were analyzed using GraphPad Prism (San Diego, Calif.); the IC50 values were derived from a single curve fit to the mean data of n=2-3, in duplicates.
All compounds were dissolved in dimethyl sulfoxide at 10 mM stock solutions and tested at a concentration that the dimethyl sulfoxide levels never exceeded 1%.

Cn1ccc(CNC(=O)[C@@]2(C)CC[C@]3(C)CC[C@@]4(C)[C@]5(C)CC[C@H]6C(C)(C)C(=O)C(C#N)=C[C@]6(C)C5=CC(=O)[C@]4(O)[C@@H]3C2)n1 [Example 12, (2S,4aS,6aS,6bR,8aR,12aS,14aS,14bR)-11-cyano-14a-hydroxy-2,4a,6a,6b,9,9,12a-heptamethyl-N-[(1-methyl-1H-pyrazol-3-yl)methyl]-10,14-dioxo-1,2,3,4,4a,5,6,6a,6b,7,8,8a,9,10,12a,14,14a,14b-octadecahydropicene-2-carboxamide]
IC50: 14.1 nM

CC1(C)C(=O)C(C#N)=C[C@]2(C)C3=CC(=O)[C@]4(O)[C@@H]5C[C@@](C)(C(=O)NCc6cccnn6)CC[C@]5(C)CC[C@@]4(C)[C@]3(C)CC[C@@H]12 [Example 8, (2S,4aS,6aS,6bR,8aR,12aS,14aS,14bR)-11-cyano-14a-hydroxy-2,4a,6a,6b,9,9,12a-heptamethyl-10,14-dioxo-N-(pyridazin-3-ylmethyl)-1,2,3,4,4a,5,6,6a,6b,7,8,8a,9,10,12a,14,14a,14b-octadecahydropicene-2-carboxamide]
IC50: 27.9 nM

CC1(C)C(=O)C(C#N)=C[C@]2(C)C3=CC(=O)[C@]4(O)[C@@H]5C[C@@](C)(C(=O)n6ccnc6)CC[C@]5(C)CC[C@@]4(C)[C@]3(C)CC[C@@H]12 [Example 15, (4aR,6aR,6bS,8aS,11S,12aR,12bS,14bS)-12b-hydroxy-11-(1H-imidazol-1-ylcarbonyl)-4,4,6a,6b,8a,11,14b-heptamethyl-3,13-dioxo-3,4,4a,5,6,6a,6b,7,8,8a,9,10,11,12,12a,12b,13,14b-octadecahydropicene-2-carbonitrile]
IC50: 269 nM

Cc1ccccc1CNC(=O)[C@@]1(C)CC[C@]2(C)CC[C@@]3(C)[C@]4(C)CC[C@H]5C(C)(C)C(=O)C(C#N)=C[C@]5(C)C4=CC(=O)[C@]3(O)[C@@H]2C1 [Example 11, (2S,4aS,6aS,6bR,8aR,12aS,14aS,14bR)-11-cyano-14a-hydroxy-2,4a,6a,6b,9,9,12a-heptamethyl-N-(2-methylbenzyl)-10,14-dioxo-1,2,3,4,4a,5,6,6a,6b,7,8,8a,9,10,12a,14,14a,14b-octadecahydropicene-2-carboxamide]
IC50: 140 nM

CC(C)CNC(=O)[C@@]1(C)CC[C@]2(C)CC[C@@]3(C)[C@]4(C)CC[C@H]5C(C)(C)C(=O)C(C#N)=C[C@]5(C)C4=CC(=O)[C@]3(O)[C@@H]2C1 [Example 32, (2S,4aS,6aS,6bR,8aR,12aS,14aS,14bR)-11-cyano-14a-hydroxy-N-isobutyl-2,4a,6a,6b,9,9,12a-heptamethyl-10,14-dioxo-1,2,3,4,4a,5,6,6a,6b,7,8,8a,9,10,12a,14,14a,14b-octadecahydropicene-2-carboxamide]
IC50: 8.8 nM

CC(C)CCNC(=O)[C@@]1(C)CC[C@]2(C)CC[C@@]3(C)[C@]4(C)CC[C@H]5C(C)(C)C(=O)C(C#N)=C[C@]5(C)C4=CC(=O)[C@]3(O)[C@@H]2C1 [Example 17, (2S,4aS,6aS,6bR,8aR,12aS,14aS,14bR)-11-cyano-14a-hydroxy-2,4a,6a,6b,9,9,12a-heptamethyl-N-(3-methylbutyl)-10,14-dioxo-1,2,3,4,4a,5,6,6a,6b,7,8,8a,9,10,12a,14,14a,14b-octadecahydropicene-2-carboxamide]
IC50: 24 nM

CC1(C)C(=O)C(C#N)=C[C@]2(C)C3=CC(=O)[C@]4(O)[C@@H]5C[C@@](C)(C(=O)NCc6ccccc6)CC[C@]5(C)CC[C@@]4(C)[C@]3(C)CC[C@@H]12 [Example 22, (2S,4aS,6aS,6bR,8aR,12aS,14aS,14bR)—N-benzyl-11-cyano-14a-hydroxy-2,4a,6a,6b,9,9,12a-heptamethyl-10,14-dioxo-1,2,3,4,4a,5,6,6a,6b,7,8,8a,9,10,12a,14,14a,14b-octadecahydropicene-2-carboxamide]
IC50: 27.1 nM

CCC(C)CNC(=O)[C@@]1(C)CC[C@]2(C)CC[C@@]3(C)[C@]4(C)CC[C@H]5C(C)(C)C(=O)C(C#N)=C[C@]5(C)C4=CC(=O)[C@]3(O)[C@@H]2C1 (stereo partly drawn) [Example 33, (2S,4aS,6aS,6bR,8aR,12aS,14aS,14bR)-11-cyano-14a-hydroxy-2,4a,6a,6b,9,9,12a-heptamethyl-N-(2-methylbutyl)-10,14-dioxo-1,2,3,4,4a,5,6,6a,6b,7,8,8a,9,10,12a,14,14a,14b-octadecahydropicene-2-carboxamide]
IC50: 43.7 nM

CCCN(C)C(=O)[C@@]1(C)CC[C@]2(C)CC[C@@]3(C)[C@]4(C)CC[C@H]5C(C)(C)C(=O)C(C#N)=C[C@]5(C)C4=CC(=O)[C@]3(O)[C@@H]2C1 [Example 6, (2S,4aS,6aS,6bR,8aR,12aS,14aS,14bR)-11-cyano-14a-hydroxy-N,2,4a,6a,6b,9,9,12a-octamethyl-10,14-dioxo-N-propyl-1,2,3,4,4a,5,6,6a,6b,7,8,8a,9,10,12a,14,14a,14b-octadecahydropicene-2-carboxamide]
IC50: 35.5 nM

COCCNC(=O)[C@@]1(C)CC[C@]2(C)CC[C@@]3(C)[C@]4(C)CC[C@H]5C(C)(C)C(=O)C(C#N)=C[C@]5(C)C4=CC(=O)[C@]3(O)[C@@H]2C1 [Example 16, (2S,4aS,6aS,6bR,8aR,12aS,14aS,14bR)-11-cyano-14a-hydroxy-N-(2-methoxyethyl)-2,4a,6a,6b,9,9,12a-heptamethyl-10,14-dioxo-1,2,3,4,4a,5,6,6a,6b,7,8,8a,9,10,12a,14,14a,14b-octadecahydropicene-2-carboxamide]
IC50: 8.6 nM

CC1(C)C(=O)C(C#N)=C[C@]2(C)C3=CC(=O)[C@@H]4[C@@H]5C[C@@](C)(C(=O)NCc6ccco6)CC[C@]5(C)CC[C@@]4(C)[C@]3(C)CC[C@@H]12 [Example 35, (2S,4aS,6aR,6bS,8aR,12aS,14aR,14bS)-11-cyano-N-(2-furylmethyl)-2,4a,6a,6b,9,9,12a-heptamethyl-10,14-dioxo-1,2,3,4,4a,5,6,6a,6b,7,8,8a,9,10,12a,14,14a,14b-octadecahydropicene-2-carboxamide]
IC50: 13.8 nM

CC1(C)C(=O)C(C#N)=C[C@]2(C)C3=CC(=O)[C@]4(O)[C@@H]5C[C@@](C)(C(=O)NCc6ccnnc6)CC[C@]5(C)CC[C@@]4(C)[C@]3(C)CC[C@@H]12 [Example 5, (2S,4aS,6aS,6bR,8aR,12aS,14aS,14bR)-11-cyano-14a-hydroxy-2,4a,6a,6b,9,9,12a-heptamethyl-10,14-dioxo-N-(pyridazin-4-ylmethyl)-1,2,3,4,4a,5,6,6a,6b,7,8,8a,9,10,12a,14,14a,14b-octadecahydropicene-2-carboxamide]
IC50: 50 nM

COCCN(C)C(=O)[C@@]1(C)CC[C@]2(C)CC[C@@]3(C)[C@]4(C)CC[C@H]5C(C)(C)C(=O)C(C#N)=C[C@]5(C)C4=CC(=O)[C@]3(O)[C@@H]2C1 [Example 28, (2S,4aS,6aS,6bR,8aR,12aS,14aS,14bR)-11-cyano-14a-hydroxy-N-(2-methoxyethyl)-N,2,4a,6a,6b,9,9,12a-octamethyl-10,14-dioxo-1,2,3,4,4a,5,6,6a,6b,7,8,8a,9,10,12a,14,14a,14b-octadecahydropicene-2-carboxamide]
IC50: 17.4 nM

COCCNC(=O)[C@@]1(C)CC[C@]2(C)CC[C@]3(C)[C@H](C(=O)C=C4[C@@]5(C)C=C(C#N)C(=O)C(C)(C)[C@@H]5CC[C@]43C)[C@@H]2C1 [Example 34, (2S,4aS,6aR,6bS,8aR,12aS,14aR,14bS)-11-cyano-N-(2-methoxyethyl)-2,4a,6a,6b,9,9,12a-heptamethyl-10,14-dioxo-1,2,3,4,4a,5,6,6a,6b,7,8,8a,9,10,12a,14,14a,14b-octadecahydropicene-2-carboxamide]
IC50: 3 nM

CC1(C)C(=O)C(C#N)=C[C@]2(C)C3=CC(=O)[C@]4(O)[C@@H]5C[C@@](C)(C(=O)NCc6ccno6)CC[C@]5(C)CC[C@@]4(C)[C@]3(C)CC[C@@H]12 [Example 30, (2S,4aS,6aS,6bR,8aR,12aS,14aS,14bR)-11-cyano-14a-hydroxy-2,4a,6a,6b,9,9,12a-heptamethyl-N-(1,2-oxazol-5-ylmethyl)-10,14-dioxo-1,2,3,4,4a,5,6,6a,6b,7,8,8a,9,10,12a,14,14a,14b-octadecahydropicene-2-carboxamide]
IC50: 12.4 nM

CC1(C)C(=O)C(C#N)=C[C@]2(C)C3=CC(=O)[C@]4(O)[C@@H]5C[C@@](C)(C(=O)NCCN6CCOCC6)CC[C@]5(C)CC[C@@]4(C)[C@]3(C)CC[C@@H]12 [Example 10, (2S,4aS,6aS,6bR,8aR,12aS,14aS,14bR)-11-cyano-14a-hydroxy-2,4a,6a,6b,9,9,12a-heptamethyl-N-[2-(morpholin-4-yl)ethyl]-10,14-dioxo-1,2,3,4,4a,5,6,6a,6b,7,8,8a,9,10,12a,14,14a,14b-octadecahydropicene-2-carboxamide]
IC50: 23.9 nM
